Converted amounts (≈) assume the structure as drawn. The source made the active and inactive calls. No cut-off for these calls is given here.
Legend:
[1] = test system: Escherichia coli; assay: Antibacterial activity against Escherichia coli ATCC 25922 incubated for 16 to 18 hrs by broth dilution assay; format: functional; settings: time 16-18 hrs
[2] = test system: Staphylococcus aureus; assay: Antibacterial activity against methicillin-resistant Staphylococcus aureus 33591 incubated for 16 to 18 hrs by broth dilution assay; format: functional; settings: time 16-18 hrs
[3] = test system: Bacillus subtilis; assay: Antibacterial activity against Bacillus subtilis 6633 incubated for 16 to 18 hrs by broth dilution assay; format: functional; settings: time 16-18 hrs
[4] = test system: Staphylococcus aureus; assay: Antibacterial activity against methicillin-resistant Staphylococcus aureus BAA-44 incubated for 16 to 18 hrs by broth dilution assay; format: functional; settings: time 16-18 hrs
[5] = test system: Staphylococcus aureus; assay: Antibacterial activity against Staphylococcus aureus ATCC 25923 incubated for 16 to 18 hrs by broth dilution assay; format: functional; settings: time 16-18 hrs
[6] = test system: Pseudomonas aeruginosa; assay: Antibacterial activity against Pseudomonas aeruginosa ATCC BAA-427 incubated for 16 to 18 hrs by broth dilution assay; format: functional; settings: time 16-18 hrs
[7] = test system: Klebsiella pneumoniae; assay: Antibacterial activity against Klebsiella pneumoniae ATCC 27736 incubated for 16 to 18 hrs by broth dilution assay; format: functional; settings: time 16-18 hrs
[8] = test system: Mycolicibacterium smegmatis; assay: Antitubercular activity against Mycobacterium smegmatis incubated for 24 hrs by rezasurin dye based assay; format: functional
[9] = Hemolytic activity in human RBC measured after 40 mins by absorbance based assay; format: toxicity, cell-based, Erythrocyte; settings: human red blood cells
[10] = Retention time of compound by RP-HPLC method; format: physicochemical
[11] = Hemolytic activity in human RBC at 100 uM measured after 40 mins by absorbance based assay relative to control; format: toxicity, cell-based, Erythrocyte; settings: human red blood cells, read-out: Activity
[12] = test system: Escherichia coli; assay: Disruption of membrane integrity in Escherichia coli ATCC 25922 by PI staining based analysis; format: functional, organism-based
[13] = test system: Escherichia coli; assay: Disruption of plasma membrane integrity in Escherichia coli ATCC 25922 by SYTOX-Green uptake assay; format: functional, organism-based
[14] = test system: Escherichia coli; assay: Induction of membrane depolarization in Escherichia coli ATCC 25922 by diSC3-5 dye based analysis; format: functional, organism-based
[15] = test system: Escherichia coli; assay: Antibacterial activity against Escherichia coli ATCC 25922 incubated for 16 to 18 hrs in presence of 10 percent human serum by broth dilution assay; format: functional; settings: time 16-18 hrs
[16] = test system: Staphylococcus aureus; assay: Disruption of membrane integrity in Staphylococcus aureus ATCC 25923 by PI staining based analysis; format: functional, organism-based
[17] = test system: Staphylococcus aureus; assay: Bactericidal activity against Staphylococcus aureus ATCC 25923 incubated for 16 to 18 hrs; format: functional; settings: time 16-18 hrs
[18] = test system: Staphylococcus aureus; assay: Bactericidal activity against Staphylococcus aureus ATCC 25923 at MIC incubated for 45 mins by time kill assay; format: functional, organism-based
[19] = Cytotoxicity against mouse 3T3-L1 cells assessed as cell viability at 100 uM incubated for 24 hrs by MTT assay relative to control; format: toxicity, cell-based; settings: 3T3-L1 cells, read-out: Activity
[20] = test system: Staphylococcus aureus; assay: Antibacterial activity against Staphylococcus aureus ATCC 25923 incubated for 16 to 18 hrs in presence of 10 percent human serum by broth dilution assay; format: functional; settings: time 16-18 hrs
[21] = test system: Escherichia coli; assay: Bactericidal activity against Escherichia coli ATCC 25922 at MIC incubated for 45 mins by time kill assay; format: functional, organism-based
[22] = Hemolytic activity in human RBC assessed as disruption of membrane integrity by Alexa Fluor-Annexin V staining based analysis; format: toxicity, cell-based; settings: erythrocyte
[23] = Cytotoxicity against rat L6 cells assessed as cell viability at 100 uM incubated for 24 hrs by MTT assay relative to control; format: toxicity, cell-based; settings: L6 cells, read-out: Activity
[24] = test system: Escherichia coli; assay: Bactericidal activity against Escherichia coli ATCC 25922 incubated for 16 to 18 hrs; format: functional; settings: time 16-18 hrs
[25] = test system: Staphylococcus aureus; assay: Induction of membrane depolarization in Staphylococcus aureus ATCC 25923 by diSC3-5 dye based analysis; format: functional, organism-based
[26] = test system: Staphylococcus aureus; assay: Disruption of plasma membrane integrity in Staphylococcus aureus ATCC 25923 by SYTOX-Green uptake assay; format: functional, organism-based
[27] = test system: Escherichia coli; assay: Induction of cell membrane damage in Escherichia coli ATCC 25922 at 3 times MIC incubated for 60 mins by SEM analysis; format: functional, organism-based
[28] = test system: Staphylococcus aureus; assay: Induction of cell membrane damage in Staphylococcus aureus ATCC 25923 at 3 times MIC incubated for 60 mins by SEM analysis; format: functional, organism-based

Compound | MIC [1] [µM] | MIC [2] [µM] | MIC [3] [µM] | MIC [4] [µM] | MIC [5] [µM] | MIC [6] [µM] | MIC [7] [µM] | HC50 at 40 min [9] [mM] | Retention_time [10] [min] | also measured
CC1(C)S[C@@H]2[C@H](NC(=O)[C@H](N)c3ccccc3)C(=O)N2[C@H]1C(=O)O [AMPICILLIN] | 12.5 (≈ 4.37 µg/mL) | 12.5 (≈ 4.37 µg/mL) | 1.6 (≈ 0.559 µg/mL) | 25 (≈ 8.74 µg/mL) | 3.1 (≈ 1.08 µg/mL) | 25 (≈ 8.74 µg/mL) | 100 (≈ 34.9 µg/mL) | – | – | –
CO[C@H]1/C=C/O[C@@]2(C)Oc3c(C)c(O)c4c(O)c(c(/C=N/N5CCN(C)CC5)c(O)c4c3C2=O)NC(=O)/C(C)=C\C=C\[C@H](C)[C@H](O)[C@@H](C)[C@@H](O)[C@@H](C)[C@H](OC(C)=O)[C@@H]1C [RIFAMPIN] | – | – | – | – | – | – | – | – | – | MIC [8]: 0.25 µM (≈ 0.206 µg/mL)
H-GRLGRLGRLGRL-OH | 18.9 | 18.9 | 18.9 | 18.9 | 4.7 | 75.6 | > 151 | 2 | 20.87 | –
H-GRLVGRLVGRLV-OH | 155 | > 155 | > 155 | > 155 | > 155 | 155 | 155 | 2 | 13.4 | –
H-KVKVKVKVKV-OH | 21.7 | 43.4 | 10.9 | 21.7 | 21.7 | 21.7 | 43.4 | 0.283 | 10.88 | hemolysis at 40 min, 100 µM [11]: 18%
H-KVKVKVKVKVKV-OH | 18.1 | 36.2 | 9.1 | 18.1 | 36.2 | 36.2 | 72.4 | 0.118 | 10.81 | hemolysis at 40 min, 100 µM [11]: 42%
H-KVKVKVKVKVKVKV-OH | 7.8 | 15.5 | 3.8 | 15.5 | 7.8 | 31.1 | 7.8 | 0.062 | 10.73 | hemolysis at 40 min, 100 µM [11]: 80%
H-KVLGKVLGKVLG-OH | > 165 | > 165 | > 165 | > 165 | > 165 | > 165 | > 165 | 2 | 15.26 | –
H-KVLGKVLGKVLGKVLG-OH | 3.9 | 7.8 | 15.6 | 3.9 | 7.8 | 15.6 | 7.8 | 2 | 20.12 | Activity [12]: Active; Activity [13]: Active; Activity [14]: Active; MIC [8]: > 10 µM; MIC [15]: 3.9 µM; Activity [16]: Active; MBC [17]: 12.6 µM; Activity [18]: Active; viability at 24 h, 100 µM [19]: 75%; MIC [20]: 12.6 µM; Activity [21]: Active; Activity [22]: Non-toxic; viability at 24 h, 100 µM [23]: 75%; MBC [24]: 3.9 µM; Activity [25]: Active; Activity [26]: Active
H-KVLGRKVLGR-OH | 178 | > 178 | > 178 | > 178 | 178 | > 178 | > 178 | 2 | 10.61 | –
H-KVLGRKVLGRKVLGR-OH | 29.8 | > 119 | > 119 | > 119 | 29.8 | > 119 | > 119 | 2 | 11.73 | –
H-KVLGRLKVLGRL-OH | 74 | > 147 | > 147 | > 147 | > 147 | > 147 | > 147 | 2 | 16.81 | –
H-LGRLGRLGRLGR-OH | 15.5 | > 151 | 151 | > 151 | > 151 | > 151 | > 151 | 2 | 20.45 | –
H-LGRLGRLGRLGRLGR-OH | 1.9 | > 121 | 30.3 | 60.6 | 1.9 | 60.6 | > 121 | 2 | 16.23 | –
H-LGRLLGRLLGRLLGRL-OH | 1.8 | 1.8 | 1.8 | 1.8 | 1.8 | 3.5 | 1.8 | 0.051 | 20.87 | hemolysis at 40 min, 100 µM [11]: 95%
H-LGRLVLGRLV-OH | 91.4 | > 183 | > 183 | > 183 | 183 | > 183 | > 183 | 2 | 16.21 | –
H-LGRLVLGRLVLGRLV-OH | 7.6 | > 122 | > 122 | 61.2 | 15.3 | > 122 | > 122 | 2 | 18.77 | –
H-RLRLRLRLRLRL-OH | 1.9 | 15.3 | 3.8 | 15.3 | 3.8 | 15.3 | 30.6 | 0.279 | 15.99 | hemolysis at 40 min, 100 µM [11]: 17%
H-RLRLRLRLRLRLRL-OH | 3.3 | 13.1 | 3.3 | 13.1 | 3.3 | 13.1 | 26.2 | 0.249 | 16.72 | hemolysis at 40 min, 100 µM [11]: 20%
H-RLVRLVRLVRLV-OH | 4.2 | 4.2 | 2.1 | 4.2 | 4.2 | 8.4 | 8.4 | 2 | 19.25 | Activity [12]: Active; Activity [27]: Active; Activity [13]: Active; Activity [14]: Active; MIC [8]: 5 µM; MIC [15]: 16.8 µM; Activity [16]: Active; Activity [28]: Active; MBC [17]: 8.4 µM; Activity [18]: Active; viability at 24 h, 100 µM [19]: 75%; MIC [20]: 16.8 µM; Activity [21]: Active; Activity [22]: Non-toxic; viability at 24 h, 100 µM [23]: 75%; MBC [24]: 8.4 µM; Activity [25]: Active; Activity [26]: Active
H-VLGRLVLGRL-OH | 183 | > 183 | > 183 | > 183 | 183 | 183 | 183 | 2 | 16.21 | –
H-VLGRLVLGRLVLGRL-OH | 7.6 | 122 | > 122 | 61.2 | 7.6 | > 122 | > 122 | 2 | 19.07 | –
H-VLGRLVVLGRLV-OH | 77.4 | > 155 | > 155 | > 155 | > 155 | > 155 | > 155 | 2 | 17.91 | –
H-VLGRVLGRVLGR-OH | > 155 | > 155 | > 155 | > 155 | > 155 | > 155 | > 155 | 2 | 15.4 | –

— ChEMBL document CHEMBL6087460, “Generating a Peptide Library Using the Repeats of Amino Acid Scaffolds Created by Sliding the Framework of a 7-mer Human Chemerin Segment and Discovery of Potent Antibacterial and Antimycobacterial Peptides” (J Med Chem, 2025)
